Assay results: patent US9199939B2, “Quinoline amide M1 receptor positive allosteric modulators” (Merck Sharp & Dohme Corp., priority 2009, dated 2015)
Where two headings read alike, the source gives them in different places.

Target: T1, acetylcholine muscarinic M1 receptor (Homo sapiens, UniProt P11229)
T1 construct: expressed in transfected cells; host or cells: CHOnfat (CHO cells; also called CHOK1/hM1)
T1 sequence (P11229 1-460): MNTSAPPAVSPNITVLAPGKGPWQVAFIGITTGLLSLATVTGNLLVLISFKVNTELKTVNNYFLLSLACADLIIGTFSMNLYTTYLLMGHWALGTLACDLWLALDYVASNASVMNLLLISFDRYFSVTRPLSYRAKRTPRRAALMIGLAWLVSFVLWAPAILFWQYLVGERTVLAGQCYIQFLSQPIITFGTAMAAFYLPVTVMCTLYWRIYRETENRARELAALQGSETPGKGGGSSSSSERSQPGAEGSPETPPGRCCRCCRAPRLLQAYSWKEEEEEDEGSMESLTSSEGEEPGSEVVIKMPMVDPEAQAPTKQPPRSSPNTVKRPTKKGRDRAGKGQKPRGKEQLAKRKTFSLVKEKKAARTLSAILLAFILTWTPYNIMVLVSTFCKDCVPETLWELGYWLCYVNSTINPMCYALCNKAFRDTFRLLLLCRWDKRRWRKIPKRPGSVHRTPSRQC
Assay: Muscarinic M1 FLIPR intracellular calcium assay for positive allosteric modulators
Assay type: cell-based
Protocol: The assay studies the effect of one or several concentrations of test compounds on basal or acetylcholine-stimulated Ca^2+ levels using FLIPR.
Compounds are prepared and subjected to a preincubation period of 4 min. Thereafter, a single EC20 concentration of acetylcholine is added to each well (3 nM final). The intracellular Ca^2+ level of each sample is measured and compared to an acetylcholine control to determine any modulatory activity.
Cells: CHOnfat/hM1, hM2, hM3 or hM4 cells are plated 24 hr before the assay at a density of 18,000 cells/well (100 μL) in a 384 well plate. CHOnfat/hM1 and CHOnfat/hM3 Growth Medium: 90% DMEM (Hi Glucose); 10% HI FBS; 2 mM L-glutamine; 0.1 mM NEAA; Pen-Strep; and 1 mg/ml Geneticin, are added. For M2Gqi5CHOnfat and M4Gqi5CHOnfat cells, an additional 600 ug/ml hygromycin is added.
Equipment: 384 well plate, 120 μL addition plate; 96-well Whatman 2 ml Uniplate Incubator, 37° C., 5% CO2; Skatron EMBLA-384 Plate Washer; Multimek Pipetting System; Genesis Freedom 200 System; Mosquito System; Temo Nanolitre Pipetting System; and FLIPR^384 Fluorometric Imaging Plate Reader System are used.
Buffers. Assay Buffer: Hanks Balanced Salt Solution, with 20 mM Hepes, 2.5 mM Probenecid (Sigma P-8761) first dissolved in 1 N NaOH, 1% Bovine Serum Albumin (Sigma A-9647). Dye Loading Buffer: Assay Buffer plus 1% Fetal Bovine Serum and Fluo-4AM/Pluronic Acid Mixture. 2 mM Fluo-4AM ester stock in DMSO (Molecular Probes F-14202) Concentration of 2 μM in buffer for a final concentration of 1 μM in Assay. 20% Pluronic Acid Solution stock, with concentration of 0.04% in Buffer, 0.02% in Assay.
65 μL of 2 mM Fluo-4AM are mixed with 130 μL of 20% Pluronic Acid. The resulting solution and 650 μL FBS is added to the assay buffer for a total volume of 65 mL. Positive Controls: 4-Br-A23187: 10 mM in DMSO; final concentration 10 μM. Acetylcholine: 10 mM in water, working stock at both 20 μM and 30 μM in assay buffer, final concentration of 10 μM. This is used to check the maximum stimulation of the CHOK1/hM1 cells. 20 μM (2×) acetylcholine is added in the preincubation part of the assay, and the 30 μM (3×) stock is added in the second part. (EC20)Acetylcholine: 10 mM in water, working stock of 9 nM (3×), and final concentration in assay is 3 nM. This is used after the preincubation with test compounds. Addition of the EC20 Acetylcholine to each well with a test compound will ascertain any modulator activity. 24 wells contain 3 nM Acetylcholine alone as a control.
Determining Activity of Putative Compounds:
Screening Plate Compounds are titrated in 96-well plates (columns 2-11), 100% DMSO, started at a concentration of 15 mM (150× stock concentration), and 3-fold serial dilutions using Genesis Freedom200 System. Four 96-well plates are combined into a 384-well plate using Mosquito Nanolitre Pipetting System by transferring 1 μl of serial diluted compounds to each well, and 1 mM acetylcholine (100× stock concentration) were added as a control. Using Temo, 49 μl assay buffer is added to each well of the 384-well plate right before assay.
In a 96-well Whatman 2 ml Uniplate, 9 nM Acetylcholine (3×) is pipetted into wells corresponding to the screening compounds, and into control wells. The 30 μM acetylcholine control (3×) is added into control wells, and the 3× agonist plate is transferred into a 384 well plate.
Cells are washed three times with 100 μL of buffer, leaving 30 μL of buffer in each well. Using Multimek, 30 μL of Dye Loading Buffer is added into each well and incubated at 37° C., 5% CO2 for up to one hr.
After 60 min, the cells are washed three times with 100 μL of buffer, leaving 30 μL of buffer in each well. The cell plate, screening plate, and agonist addition plates are placed on the platform in the FLIPR and the door closed. A signal test to check background fluorescence and basal fluorescence signal is performed. Laser intensity is adjusted if necessary. […]

[1] = IP = inflection point calculated from FLIPR values, CHOnfat/hM1 cells, 4 min preincubation, then EC20 acetylcholine (3 nM final), read-out: IP Value

SMILES | EC50 [1] [µM] | EC50 [µM]
O=C(N[C@H]1CCCC[C@@H]1O)c1cc(Cc2ccc(Cl)nc2)c2ccccc2[n+]1[O-] [Example 3, 4-[(6-Chloropyridin-3-yl)methyl]-N-[(1S,2S)-2-hydroxycyclohexyl]quinoline-2-carboxamide 1-oxide] | 0.148 | –
O=C(N[C@H]1CCCC[C@@H]1O)c1cc(Cc2ccc(C3CC3)nc2)c2ccccc2n1 [Example 4, 4-[(6-Cyclopropylpyridin-3-yl)methyl]-N-[(1,2)-2-hydroxycyclohexyl]quinoline-2-carboxamide] | 0.039 | –
Cn1cc(-c2ccc(Cc3cc(C(=O)N[C@H]4CCCC[C@@H]4O)nc4ccccc34)cn2)cn1 [Example 5, N-[(1S,2S)-2-Hydroxycyclohexyl]-4-{[6-(1-methyl-1H-pyrazol-4-yl)pyridin-3-yl]methyl}quinoline-2-carboxamide] | 0.006 | –
O=C(N[C@H]1CCCC[C@@H]1O)c1cc(Cc2cccnc2)c2ccccc2n1 [Example 6, N-[(1S,2S)-2-Hydroxycyclohexyl]-4-(pyridin-3-ylmethyl)quinoline-2-carboxamide] | 0.081 | –
Cn1cc(-c2ccc(Cc3cc(C(=O)N[C@H]4CCCC[C@@H]4O)nc4ccccc34)c[n+]2[O-])cn1 [Example 8, N-[(1S,2S)-2-Hydroxycyclohexyl]-4-{[6-(1-methyl-1H-pyrazol-4-yl)-1-oxidopyridin-3-yl]methyl}quinoline-2-carboxamide] | 0.021 | –
Cn1cc(-c2ccc(Cc3cc(C(=O)N[C@H]4CCCC[C@@H]4F)nc4ccccc34)cn2)cn1 [Example 9, N-[(1S,2S)-2-Fluorocyclohexyl]-4-{[6-(1-methyl-1H-pyrazol-4-yl)pyridin-3-yl]methyl}quinoline-2-carboxamide] | 0.261 | –
O=C(N[C@H]1CCOC[C@@H]1O)c1cc(Cc2ccc(C(F)F)nc2)c2cccc(F)c2n1 [Example 17, 4-{[6-(Difluoromethyl)pyridin-3-yl]methyl}-8-fluoro-N-[(3R,4S)-3-hydroxytetrahydro-2H-pyran-4-yl]quinoline-2-carboxamide] | 0.018 | –
COc1ccc(C(F)c2cc(C(=O)N[C@H]3CCOC[C@@H]3O)nc3c(OC)cccc23)cn1 (stereo partly drawn) [Example 18, 4-[Fluoro(6-methoxypyridin-3-yl)methyl]-N-[(3R,4S)-3-hydroxytetrahydro-2H-pyran-4-yl]-8-methoxyquinoline-2-carboxamide] | 0.247 | –
COc1ccc(Cc2cc(C(=O)N[C@H]3CCOC[C@@H]3O)nc3c(F)cccc23)cn1 [Example 19, 8-Fluoro-N-[(3R,4S)-3-hydroxytetrahydro-2H-pyran-4-yl]-4-[(6-methoxypyridin-3-yl)methyl]quinoline-2-carboxamide] | – | 0.019
COc1ccc(Cc2cc(C(=O)N[C@H]3CCOC[C@@H]3O)nc3c(F)cccc23)c[n+]1[O-] [Example 21, 8-Fluoro-N-[(3R,4S)-3-hydroxytetrahydro-2H-pyran-4-yl]-4-[(6-methoxy-1-oxidopyridin-3-yl)methyl]quinoline-2-carboxamide] | 0.21 | –

Continued, in another order:

EC50 [1] [µM] | SMILES | EC50 [µM]
0.041 | O=C(N[C@H]1CCCC[C@@H]1O)c1cc(Cc2ccc(Cl)nc2)c2ccccc2n1 [Example 1, 4-[(6-Chloropyridin-3-yl)methyl]-N-[(1S,2S)-2-hydroxycyclohexyl]quinoline-2-carboxamide] | –
0.143 | Cc1ccc(Cc2cc(C(=O)N[C@H]3CCCC[C@@H]3O)nc3ccccc23)cn1 [Example 2, N-[(1S,2S)-2-Hydroxycyclohexyl]-4-[(6-methylpyridin-3-yl)methyl]quinoline-2-carboxamide] | –
0.037 | CSc1ccc(Cc2cc(C(=O)N[C@H]3CCCC[C@@H]3O)nc3ccccc23)cn1 [Example 7, N-[(1S,2S)-2-Hydroxycyclohexyl]-4-{[6-(inethylsulfanyl)pyridin-3-yl]methyl}quinoline-2-carboxamide] | –
0.017 | Cn1cc(-c2ccc(Cc3cc(C(=O)N[C@H]4COCC[C@@H]4O)nc4ccccc34)cn2)cn1 [Example 10, N-[(3S,4S)-4-Hydroxytetrahydro-2H-pyran-3-yl]-4-{[6-(1-methyl-1H-pyrazol-4-yl)pyridin-3-yl]methyl}quinoline-2-carboxamide] | –
0.052 | COc1ccc(Cc2cc(C(=O)N[C@H]3CCOC[C@@H]3O)nc3ccccc23)cn1 [Example 11, N-[(3R,4S)-3-Hydroxytetrahydro-2H-pyran-4-yl]-4-[(6-methoxypyridin-3-yl)methyl]quinoline-2-carboxamide] | –
0.06 | CCOc1ccc(Cc2cc(C(=O)N[C@H]3CCOC[C@@H]3O)nc3ccccc23)cn1 [Example 12, 4-[(6-Ethoxypyridin-3-yl)methyl]-N-[(3R,4S)-3-hydroxytetrahydro-2H-pyran-4-yl]quinoline-2-carboxamide] | –
0.046 | COc1cc(Cc2cc(C(=O)N[C@H]3CCOC[C@@H]3O)nc3ccccc23)ccn1 [Example 13, N-[(3R,4S)-3-Hydroxytetrahydro-2H-pyran-4-yl]-4-[(2-methoxypyridin-4-yl)methyl]quinoline-2-carboxamide] | –
0.316 | CSc1ncc(Cc2cc(C(=O)N[C@H]3CCOC[C@@H]3O)nc3ccccc23)cn1 [Example 14, N-[(3R,4S)-3-Hydroxytetrahydro-2H-pyran-4-yl]-4-{[2-(methylsulfanyl)pyrimidin-5-yl]methyl}quinoline-2-carboxamide] | –
0.052 | COc1ccc(C(F)c2cc(C(=O)N[C@H]3CCOC[C@@H]3O)nc3ccccc23)cn1 (stereo partly drawn) [Example 15, 4-[Fluoro(6-methoxypyridin-3-yl)methyl]-N-[(3R,4S)-3-hydroxytetrahydro-2H-pyran-4-yl]quinoline-2-carboxamide hydrate] | –
0.022 | O=C(N[C@H]1CCOC[C@@H]1O)c1cc(Cc2ccc(Cl)nc2)c2cccc(F)c2n1 [Example 16, 4-[(6-Chloropyridin-3-yl)methyl]-8-fluoro-N-[(3R,4S)-3-hydroxytetrahydro-2H-pyran-4-yl]quinoline-2-carboxamide] | –
0.065 | O=C(N[C@H]1CCOC[C@@H]1O)c1cc(Cc2ccc(O)nc2)c2cccc(F)c2n1 [Example 20, 8-Fluoro-4-[(6-hydroxypyridin-3-yl)methyl]-N-[(3R,4S)-3-hydroxytetrahydro-2H-pyran-4-yl]quinoline-2-carboxamide] | –
0.027 | COc1cc(Cc2cc(C(=O)N[C@H]3CCOC[C@@H]3O)nc3c(F)cccc23)ccn1 [Example 22, 8-Fluoro-N-[(3R,4S)-3-hydroxytetrahydro-2H-pyran-4-yl]-4-[(2-methoxypyridin-4-yl)methyl]quinoline-2-carboxamide] | –
